Measurements published in ChEMBL document CHEMBL4706484, “Apigenin-rivastigmine hybrids as multi-target-directed liagnds for the treatment of Alzheimer's disease” (Eur J Med Chem, 2020).
Activity calls are given as the source filed them. No cut-off for these calls is given here.

What was measured:
Mus musculus [1] = experiment: Antialzheimer activity in scopolamine-induced Kunming mouse model of memory impairment assessed as uniquely mapped in brain hippocampus at 10 mg/kg by illumina sequencing method (reference value: 94.54 %); format: functional
Acetylcholinesterase [2] = target: T1, Acetylcholinesterase (Homo sapiens, UniProt P22303); experiment: Pseudo-irreversible inhibition of human erythrocytes AChE assessed as enzyme recovery activity at 0.1 times IC50 measured at 120 mins using diluted compound relative to control; format: tissue-based; design: scale not given: the % may be the effect or the level left; details: Erythrocyte
Danio rerio [3] = species on record: Danio rerio; experiment: Antialzheimer activity against 3 dpf zebrafish model of AlCl3-induced AD assessed as motility by measuring change in speed at 12.5 ug/ml (reference value: 1.05 mm/s); format: functional; details: dose 12.5 µg/ml
[4] = Acute toxicity in 2 dpf zebrafish assessed as yolk sac absorption delay at 12.5 ug/ml measured after 3 days relative to control; design: species or system Danio rerio; details: in vivo, 72 h, at 12.5 µg/mL, time 3 day
Danio rerio [5] = species on record: Danio rerio; experiment: Protection against amyloid beta (1 to 40 residues)-induced vascular injury in transgenic zebrafish assessed as vascular injury rate at 4.2 ug/ml (reference value: 73.3 %); format: functional; details: dose 4.2 µg/ml
[6] = Acute toxicity in 2 dpf zebrafish assessed as dark brown liver at 1.39 to 12.5 ug/ml measured after 3 days; design: species or system Danio rerio; details: in vivo, 72 h, dose 1.39-12.5 µg/ml, time 3 day
Mus musculus [7] = experiment: Reversal of scopolamine-induced Kunming mouse model of memory impairment assessed as spontaneous alteration at 10 mg/kg by Y-maze test (reference value: 41.6 %); format: functional
Danio rerio [8] = species on record: Danio rerio; experiment: Protection against amyloid beta (1 to 40 residues)-induced vascular injury in transgenic zebrafish assessed as efficacy on motility at 4.2 ug/ml relative to control; format: functional; details: dose 4.2 µg/ml
PC-12 [9] = experiment: Neuroprotective activity against H2O2-induced cell injury in rat PC-12 cells assessed as cell viability at 5 uM preincubated for 2 hrs followed by H2O2 addition and measured after 24 hrs by MTT assay (reference value: 53.8 %); format: functional; details: time 26 hrs, read-out: Activity
PC-12 [10] = experiment: Cytotoxicity against rat PC-12 cells assessed as reduction in cell viability <= 100 uM measured after 48 hrs by MTT assay; format: cell-based; details: pc-12, 48 h
Danio rerio [11] = species on record: Danio rerio; experiment: Protection against amyloid beta (1 to 40 residues)-induced vascular injury in transgenic zebrafish assessed as vascular injury rate at 1.4 ug/ml (reference value: 73.3 %); format: functional; details: dose 1.4 µg/ml
[12] = Toxicity in 3 dpf zebrafish model of AlCl3-induced AD at 12.5 to 200 microg/ml; design: species or system Danio rerio; details: in vivo, dose 12.5-200 µg/ml
[13] = Acute toxicity in 2 dpf zebrafish assessed as small or misshapen brain at 1.39 to 12.5 ug/ml measured after 3 days; format: tissue-based, Danio rerio; details: in vivo, 72 h, dose 1.39-12.5 µg/ml, time 3 day
[14] = target: Amyloid-beta precursor protein (Homo sapiens) (UniProt P05067); experiment: Inhibition of self-induced amyloid beta (1 to 42) (unknown origin) aggregation at 25 uM measured after 24 hrs by TEM analysis
Danio rerio [15] = species on record: Danio rerio; experiment: Protection against amyloid beta (1 to 40 residues)-induced vascular injury in transgenic zebrafish assessed as vascular injury rate at 12.5 ug/ml (reference value: 73.3 %); format: functional; details: dose 12.5 µg/ml
Mus musculus [16] = experiment: Antialzheimer activity in scopolamine-induced Kunming mouse model of memory impairment assessed as total reads in brain hippocampus at 10 mg/kg by illumina sequencing method (reference value: 100 %); format: functional
[17] = Acute toxicity in 2 dpf zebrafish assessed as bradycardia at 1.39 to 12.5 ug/ml measured after 3 days; design: species or system Danio rerio; details: in vivo, 72 h, dose 1.39-12.5 µg/ml, time 3 day
[18] = Acute toxicity in Kunming mouse assessed as dispirited at 2000 mg/kg; format: organism-based; details: in vivo
PC-12 [19] = experiment: Neuroprotective activity against H2O2-induced cell injury in rat PC-12 cells assessed as increase in cell viability causing decrease in LDH content preincubated for 2 hrs followed by H2O2 addition and measured after 24 hrs by LDH assay; format: functional, cell-based; details: dose 5-10 µM, time 26.0 hrs
Danio rerio [20] = species on record: Danio rerio; experiment: Antialzheimer activity against 3 dpf zebrafish model of AlCl3-induced AD assessed as motility by measuring efficacy on speed change at 12.5 ug/ml relative to control; format: functional; details: dose 12.5 µg/ml
SH-SY5Y = experiment: Neuroprotective activity against amyloid beta (1 to 42 residues)-induced cell injury in human SH-SY5Y cells assessed as cell viability at 10 uM preincubated for 2 hrs followed by H2O2 addition and measured after 24 hrs by MTT assay (reference value: 52.3 %); format: functional; details: time 26 hrs, read-out: Activity
[21] = Metal chelating activity assessed as Zn2+-compound complex formation at 37.5 uM in presence of 37.5 uM ZnCl2 by UV-Vis spectrophotometric analysis
[22] = target: Amyloid-beta precursor protein (Homo sapiens) (UniProt P05067); experiment: Disaggregation of self-induced amyloid beta (1 to 42) (unknown origin) preformed fibrils at 25 uM measured after 48 hrs by TEM analysis
[23] = target: Amyloid-beta precursor protein (Homo sapiens) (UniProt P05067); experiment: Inhibition of self-induced amyloid beta (1 to 42) (unknown origin) aggregation at 25 uM by ThT fluorescence assay relative to control
[24] = Acute toxicity in 2 dpf zebrafish assessed as abnormal trunk at 1.39 to 12.5 ug/ml measured after 3 days; design: species or system Danio rerio; details: in vivo, 72 h, dose 1.39-12.5 µg/ml, time 3 day
[25] = Drug metabolism in rat intestine assessed as metabolite formation by UPLC-MS/MS analysis; format: ADME, tissue-based
Danio rerio [26] = species on record: Danio rerio; experiment: Antialzheimer activity against 3 dpf zebrafish model of AlCl3-induced AD assessed as change in motility distance at 12.5 ug/ml (reference value: 5204 mm); format: functional; details: dose 12.5 µg/ml
Mus musculus [27] = experiment: Antialzheimer activity in scopolamine-induced Kunming mouse model of memory impairment assessed as Q30 bases ratio (raw data) in brain hippocampus at 10 mg/kg by illumina sequencing method (reference value: 93.53 %); format: functional
[28] = Drug metabolism in human liver microsomes assessed as metabolite formation by UPLC-MS/MS analysis; format: ADME, Microsome
[29] = Acute toxicity in 2 dpf zebrafish assessed as abnormal liver size at 1.39 to 12.5 ug/ml measured after 3 days; design: species or system Danio rerio; details: in vivo, 72 h, dose 1.39-12.5 µg/ml, time 3 day
Cholinesterase [30] = target: T2, Cholinesterase (Homo sapiens, UniProt P06276); experiment: Pseudo-irreversible inhibition of human serum BChE assessed as enzyme recovery activity at 0.1 times IC50 using diluted compound relative to control; format: cell-free; design: scale not given: the % may be the effect or the level left
[31] = Acute toxicity in Kunming mouse at 1000 mg/kg; format: organism-based; details: in vivo
Cholinesterase [32] = target: T2, Cholinesterase; experiment: Pseudo-irreversible inhibition of human serum BChE assessed as enzyme recovery activity at 0.1 times IC50 measured at 240 mins using diluted compound relative to basal level; format: cell-free; design: scale not given: the % may be the effect or the level left
[33] = Acute toxicity in 2 dpf zebrafish assessed as absent blood flow at 1.39 to 12.5 ug/ml measured after 3 days; format: tissue-based, Danio rerio; details: 72 h, dose 1.39-12.5 µg/ml, time 3 day
[34] = Permeability of the compound in PBS/EtOH (70:30) at 100 ug/ml by PAMPA-BBB assay; format: ADME; details: dose 100 µg/ml, read-out: permeability
Danio rerio [35] = species on record: Danio rerio; experiment: Antialzheimer activity against 3 dpf zebrafish model of AlCl3-induced AD assessed as increase in motility distance; format: functional, organism-based
Acetylcholinesterase [36] = target: T1, Acetylcholinesterase; experiment: Inhibition of human erythrocytes AChE using acetylthiocholine iodide as substrate measured after 15 mins by Ellman's method; format: tissue-based, Erythrocyte
Cholinesterase [37] = target: T2, Cholinesterase; experiment: Inhibition of human serum BChE using acetylthiocholine iodide as substrate measured after 15 mins by Ellman's method; format: cell-free

Chain of Amyloid-beta precursor protein (Homo sapiens) (P05067 whole entry, the tested form may be a part): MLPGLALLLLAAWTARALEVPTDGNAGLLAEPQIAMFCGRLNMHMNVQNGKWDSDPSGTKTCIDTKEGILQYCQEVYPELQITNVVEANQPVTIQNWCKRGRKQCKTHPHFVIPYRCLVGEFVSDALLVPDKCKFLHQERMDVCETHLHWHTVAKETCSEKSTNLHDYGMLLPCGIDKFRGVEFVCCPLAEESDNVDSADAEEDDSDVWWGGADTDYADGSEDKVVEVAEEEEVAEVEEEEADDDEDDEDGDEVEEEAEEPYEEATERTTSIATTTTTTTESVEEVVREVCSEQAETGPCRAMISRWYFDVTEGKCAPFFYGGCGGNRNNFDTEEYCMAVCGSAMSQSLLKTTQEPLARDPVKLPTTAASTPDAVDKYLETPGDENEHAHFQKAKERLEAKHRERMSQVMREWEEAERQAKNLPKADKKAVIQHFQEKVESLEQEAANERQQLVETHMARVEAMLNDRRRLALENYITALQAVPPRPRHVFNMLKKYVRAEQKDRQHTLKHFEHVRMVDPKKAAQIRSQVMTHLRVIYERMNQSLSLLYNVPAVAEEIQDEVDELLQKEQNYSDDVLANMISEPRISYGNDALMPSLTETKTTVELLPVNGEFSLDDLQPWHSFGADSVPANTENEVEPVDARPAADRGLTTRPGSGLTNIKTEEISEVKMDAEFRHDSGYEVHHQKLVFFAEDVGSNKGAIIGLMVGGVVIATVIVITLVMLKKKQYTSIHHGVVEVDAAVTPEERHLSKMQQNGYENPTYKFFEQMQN
T2 sequence (P06276 whole entry): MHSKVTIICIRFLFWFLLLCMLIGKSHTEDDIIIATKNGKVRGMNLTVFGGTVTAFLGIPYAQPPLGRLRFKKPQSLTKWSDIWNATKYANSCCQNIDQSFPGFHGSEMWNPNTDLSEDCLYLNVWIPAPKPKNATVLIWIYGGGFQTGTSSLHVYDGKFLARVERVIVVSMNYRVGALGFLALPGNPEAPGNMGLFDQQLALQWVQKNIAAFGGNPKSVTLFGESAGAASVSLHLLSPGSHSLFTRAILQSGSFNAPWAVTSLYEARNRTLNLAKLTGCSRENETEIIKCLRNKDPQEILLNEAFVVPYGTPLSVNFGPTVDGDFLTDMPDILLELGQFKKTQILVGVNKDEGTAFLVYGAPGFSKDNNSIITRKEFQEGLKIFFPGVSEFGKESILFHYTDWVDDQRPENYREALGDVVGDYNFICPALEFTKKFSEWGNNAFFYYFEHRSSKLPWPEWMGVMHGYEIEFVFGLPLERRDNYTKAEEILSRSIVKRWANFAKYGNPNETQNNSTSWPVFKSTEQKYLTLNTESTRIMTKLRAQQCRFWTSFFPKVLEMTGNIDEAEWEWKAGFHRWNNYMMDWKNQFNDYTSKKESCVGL
T1 sequence (P22303 whole entry): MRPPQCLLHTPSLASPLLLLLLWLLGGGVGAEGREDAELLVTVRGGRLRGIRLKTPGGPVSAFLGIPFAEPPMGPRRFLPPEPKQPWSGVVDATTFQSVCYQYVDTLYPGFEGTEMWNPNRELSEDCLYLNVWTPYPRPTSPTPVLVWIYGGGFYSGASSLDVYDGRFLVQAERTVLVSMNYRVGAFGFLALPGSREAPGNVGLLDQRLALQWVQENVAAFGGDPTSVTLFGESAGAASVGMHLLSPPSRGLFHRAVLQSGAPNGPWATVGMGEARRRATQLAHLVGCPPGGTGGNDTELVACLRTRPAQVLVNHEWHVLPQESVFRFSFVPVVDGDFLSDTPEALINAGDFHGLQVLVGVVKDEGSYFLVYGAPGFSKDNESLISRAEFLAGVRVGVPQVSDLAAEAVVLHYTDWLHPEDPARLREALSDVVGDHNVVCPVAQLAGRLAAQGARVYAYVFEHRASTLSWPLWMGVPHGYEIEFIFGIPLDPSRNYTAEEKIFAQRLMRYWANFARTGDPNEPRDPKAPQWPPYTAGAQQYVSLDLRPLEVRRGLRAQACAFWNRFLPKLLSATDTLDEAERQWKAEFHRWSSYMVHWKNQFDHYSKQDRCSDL

CCN(C)C(=O)Oc1ccc(-c2cc(=O)c3c(O)cc(OC(=O)N(C)CC)cc3o2)cc1
Activity (Mus musculus [1]): 93.76%
Activity (Acetylcholinesterase [2]): 83.6%
Activity (Danio rerio [3]): 2.17 millimeter/sec
Activity [4]: 93.3%
Activity (Danio rerio [5]): 53%
Activity [6]: Non-Toxic
Activity (Mus musculus [7]): 63.4%
Efficacy (Danio rerio [8]): 27%
viability at 5 µM (PC-12 [9]): 68.6%
Activity (PC-12 [10]): Non-Toxic
Activity (Danio rerio [11]): 60%
Activity [12]: Non-Toxic
Activity [13]: Non-Toxic
inhibition [14]: Active
Activity (Danio rerio [15]): 27%
Activity (Mus musculus [16]): 100%
Activity [17]: Non-Toxic
Activity [18]: Toxic
Activity (PC-12 [19]): Dose-dependent effect
Efficacy (Danio rerio [20]): 87%
viability at 10 µM (SH-SY5Y): 72.3%
Activity [21]: inactive
Activity [22]: Active
inhibition [23]: 77.9%
Activity [24]: Non-Toxic
Drug metabolism [25]: Metabolite_Detected
Activity (Danio rerio [26]): 6733 mm
Activity (Mus musculus [27]): 92.76%
Drug metabolism [28]: Metabolite_Detected
Activity [29]: Non-Toxic
Activity (Cholinesterase [30]): 44.8%
Activity [31]: Non-Toxic
Activity (Cholinesterase [32]): 71.7%
Activity [33]: Non-Toxic
Papp at 100 ug/ml [34]: 15.5 ×10⁻⁶ cm/s
Activity (Danio rerio [35]): Dose-dependent effect
IC50 (Acetylcholinesterase [36]): 6.8 µM
IC50 (Cholinesterase [37]): 16.1 µM
